Experimental data from publication PMC11719397, “Monophthalates of betulinic acid and related pentacyclic triterpenes inhibit efficiently the SOS-mediated nucleotide exchange and impact PI3K/AKT signaling in oncogenic K-RAS4B proteins” (RSC Advances, 2025).
In brackets after ≈: the same amount, converted by molar mass.

How the values were obtained:
K-RAS4B wild-type [1] = biological target: K-RAS4B wild-type (Homo sapiens, UniProt P01116); experiment: Nucleotide exchange assay (SOS1-mediated GDP/GTP exchange, GDP-Glo), K-RAS4B wild-type; type: biochemical; details: K-RAS4B GDP/GTP exchange; eight data points, at least three determinations; (*) single determination
Chain of K-RAS4B wild-type (Homo sapiens, UniProt P01116) (P01116 1-188 isoform P01116-2): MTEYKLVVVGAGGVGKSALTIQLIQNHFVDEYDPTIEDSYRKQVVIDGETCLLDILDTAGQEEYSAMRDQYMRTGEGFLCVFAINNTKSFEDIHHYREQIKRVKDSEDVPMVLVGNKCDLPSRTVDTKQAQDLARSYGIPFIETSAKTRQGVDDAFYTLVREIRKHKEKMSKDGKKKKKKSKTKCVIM

K-RAS4B^G12D [2] = biological target: T1, K-RAS4B^G12D (Homo sapiens, UniProt P01116, G12D); experiment: biochemical; details: for IC50: K-RAS4B GDP/GTP exchange, eight data points, at least three determinations
Target sequence in this assay (P01116 1-188 isoform P01116-2 G12D): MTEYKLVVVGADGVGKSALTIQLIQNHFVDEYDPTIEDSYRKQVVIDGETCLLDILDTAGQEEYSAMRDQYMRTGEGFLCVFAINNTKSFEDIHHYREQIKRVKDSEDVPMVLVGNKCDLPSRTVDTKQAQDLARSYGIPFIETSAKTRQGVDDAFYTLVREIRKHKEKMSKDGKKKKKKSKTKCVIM

K-RAS4B G12V = K-RAS4B G12V (Homo sapiens, UniProt P01116, G12V); experiment: Nucleotide exchange assay (SOS1-mediated GDP/GTP exchange, GDP-Glo), K-RAS4B G12V; type: biochemical; details: eight data points, at least three determinations, (*) single determination
Chain of K-RAS4B G12V (P01116 1-188 isoform P01116-2 G12V): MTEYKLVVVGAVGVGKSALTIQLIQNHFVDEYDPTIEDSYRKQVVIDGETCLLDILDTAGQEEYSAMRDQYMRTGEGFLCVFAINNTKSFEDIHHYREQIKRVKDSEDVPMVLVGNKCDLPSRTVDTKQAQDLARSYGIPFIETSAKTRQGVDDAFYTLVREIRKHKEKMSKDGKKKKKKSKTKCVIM

K-RAS4B^wt = biological target: T2, K-RAS4B^wt (Homo sapiens, UniProt P01116); experiment: NanoBRET target engagement assay, K-RAS4B^wt (displacement of BI2852 tracer from SI/SII site); type: cell-based; details: live cells; displacement of BI2852 from the K-Ras4B SI/II binding-site; read-out: K-RAS4B^wt NanoBRET TE KD
T2 construct: a fusion protein of LgBiT and full-length RAS; a fusion protein of SmBiT(q) and full-length RAS in cells; expressed in transfected cells; host or cells: HEK239T (so in the source)
T2 sequence (P01116 1-188 isoform P01116-2): as the sequence (P01116 1-188 isoform P01116-2) above
T2 sequence (P01116 1-188 isoform P01116-2): as above
From the text: (§1) To obtain further information on the mode of action, selected GDP/GTP exchange inhibitors were studied in additional assays (Table 3). A target engagement assay, which is based on bioluminescence resonance energy transfer (BRET), was used to measure target engagement at protein complexes in live cells (Fig. 5a). The BRET effect results from an energy transfer between the target luciferase fusion protein and a cell-permeable fluorescent tracer in intact cells.
(§2) Fig. 5 Schematic illustrations of the RAS cellular target engagement and RAS:SOS protein–protein interaction assay. (a) NanoBRET target engagement (TE) assay: when the fusion proteins LgBiT-RAS and SmBiT(q)-RAS interact in live-cells, they form an active luciferase as a BRET donor. The BRET receptor is a fluorescent NanoBRET® tracer that binds specifically to K-RAS. K-RAS binders displace the tracer and reduce the BRET signal in a dose-dependent manner.
(§3) The NanoBRET® TE Intracellular RAS Assay uses NanoBiT® Technology, a structural complementation system comprised of a large luciferase subunit (LgBiT) and a small complementary peptide (SmBiT(q)). Specifically, a fusion protein of LgBiT and full-length RAS is co-expressed with a fusion protein of SmBiT(q) and full-length RAS in cells. When the RAS proteins interact and form multimers, the LgBiT and SmBiT(q) subunits come together to form an active luciferase enzyme that serves as the BRET donor. The energy acceptor is a cell-permeable fluorescent NanoBRET® tracer that binds specifically to RAS. […] After mixing the plate for 1 min and incubation at room temperature for 15 min 1 μL of NanoBRET TE RAS Tracer 01 (final concentration 1 μM) was added followed by another mixing step. After 2 h incubation (37 °C, 5% CO2) and 15 min at room temperature 5 μL of NanoBRET™ Nano-Glo® substrate was added followed by a mixing step.

[3] = biological target: (GTP)K-RAS4B^wt:SOS1 complex (Homo sapiens, UniProt P01116+Q07889); experiment: HTRF K-RAS^wt:SOS protein-protein interaction assay
Chain of (GTP)K-RAS4B^wt:SOS1 complex (P01116 1-188 isoform P01116-2): as above
Chain of (GTP)K-RAS4B^wt:SOS1 complex (Q07889 564-1049 limits assumed): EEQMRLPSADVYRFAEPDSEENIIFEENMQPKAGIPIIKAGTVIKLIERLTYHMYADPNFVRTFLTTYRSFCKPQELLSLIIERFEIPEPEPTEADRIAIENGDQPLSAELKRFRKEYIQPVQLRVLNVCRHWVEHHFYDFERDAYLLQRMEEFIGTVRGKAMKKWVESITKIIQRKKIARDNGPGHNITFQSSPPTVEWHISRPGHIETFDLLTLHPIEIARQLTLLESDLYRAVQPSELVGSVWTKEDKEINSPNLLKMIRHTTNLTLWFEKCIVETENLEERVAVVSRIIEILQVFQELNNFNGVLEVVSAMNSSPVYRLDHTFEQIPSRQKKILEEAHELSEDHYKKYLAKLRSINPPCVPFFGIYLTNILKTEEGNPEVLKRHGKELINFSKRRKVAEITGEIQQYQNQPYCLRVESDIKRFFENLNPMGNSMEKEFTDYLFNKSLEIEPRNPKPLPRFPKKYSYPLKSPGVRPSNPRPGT
Procedure: The interaction of (GTP)K-RAS4B^wt and SOS was measured with a HTRF assay using an SOS-specific antibody labeled with terbium cryptate as HTRF (homogeneous time-resolved fluorescence) donor and a K-RAS4B^wt specific antibody labeled with an HTRF acceptor (XL665).[52]
To test the compounds effect on the interaction of K-RAS and SOS1 proteins a commercial assay from Revvity (product code 64[sequence]) was used. The K-RAS WT/SOS1 PPI assay includes tagged human recombinant partners (K-RAS WT and SOS1) and labelled anti-tag reagents for HTRF detection. Without an inhibitor, K-RAS WT loaded with GTP binds to SOS1, and the binding of each detection reagent to its tagged target generates an HTRF signal. In the presence of K-RAS WT/SOS1 inhibitors or GTP competitors, the HTRF signal decreases.
After an incubation step for 10 min at room temperature 3 μL Tag1-KRAS protein was added followed by 7.5 μL detection mix containing anti-Tag2 antibody labeled with Terbium cryptate and anti-Tag1 antibody labeled with XL665. […] IC50 values were determined from the sigmoidal dose response curves with the Scigilian Analyze software (Scigilian, Monteral, Canada).

K-RAS4B^G12D [4] = biological target: T1, K-RAS4B^G12D; experiment: cell-based; set-up: a fusion protein of LgBiT and full-length RAS; a fusion protein of SmBiT(q) and full-length RAS in cells; expressed in transfected cells; host or cells: HEK239T (so in the source); details: live cells; displacement of BI2852 from the K-Ras4B SI/II binding-site; read-out: K-RAS4B^G12D NanoBRET TE KD
From the text: as §1, §2, §3
Target sequence in this assay (P01116 1-188 isoform P01116-2 G12D): as the sequence (P01116 1-188 isoform P01116-2 G12D) above
Target sequence in this assay (P01116 1-188 isoform P01116-2 G12D): as above

K-RAS4B wild-type [5] = experiment: Nucleotide exchange assay (SOS1-mediated GDP/GTP exchange, GDP-Glo), K-RAS4B wild-type; type: biochemical; details: GDP/GTP exchange IC50 of wild-type versus G12D/G12V mutants
[6] = system: ERK phosphorylation in SNU-1 cells (K-RAS4B^G12D); experiment: HTRF ERK phosphorylation assay in SNU-1 cells; type: cell-based; details: Homo sapiens, SNU1, read-out: SNU-1 pERK inhibition IC50
Procedure: (§4) For selected betulinic acid derivatives quantitative ERK and AKT phosphorylation was measured in SNU-1 (K-RAS4B^G12D) and A375 cells (K-RAS4B^wt) to determine whether pentacyclic triterpenes act via the RAS-RAF-MEK-ERK or the RAS-PI3K-PDK1-AKT downstream cascade (Table 2). The betulinic acid derivatives tested, had no activity on the ERK pathway, but inhibited AKT phosphorylation with micromolar IC50 values in agreement with literature reports.[50,51] […] No activity was detected in A375 cells carrying a BRAF but no K-RAS mutation.
(§5) SNU-1 cells harbouring the K-RASG12D mutation (primary carcinoma of the stomach), were grown in RPMI medium with 10% FBS (fetal bovine serum) and 1% L-Gln. Cells were plated in white small volume cell culture 384 well microplates (Greiner BioOne GmbH) at a density of 50.000 cells per well/6 μL in RPMI medium with 1% L-glut (serum-free medium). The plated cells were placed in a high humidity incubator (37 °C, 5% CO2 and 90% humidity) to avoid evaporation of the small amount of medium for 3 hours before the compounds were added. With the Echo520 liquid handler the cells were treated with a 3-fold 8-point serial dilution of the compounds, with a top final concentration of 330 μM and a final DMSO concentration of 1%. After compound transfer, cells were incubated for 1 hour in the high humidity incubator before the cells were treated with 3 μL of 9 nM EGF diluted in serum-free medium (final EGF concentration in the well 3 nM) for 15 minutes. The lysis buffer from the Phospho-ERK 1/2 (Thr202/Tyr204)- and the Total ERK1/2 LANCE Ultra TR-FRET Cellular Detection Kit (PerkinElmer Inc.) was prepared to a 4-fold concentration in water. Then 3 μL of the lysis buffer were added to each well and the plates were shaken at 300 rpm for 30 minutes at room temperature. During this incubation the antibody detection mix was prepared according to the manufacturer's protocol. In the final step 3 μL of antibody detection mix were added to each well. The plates were sealed with an aluminium sticky foil and incubated over night at room temperature for 20 hours. The detection was performed with the EnVision2104 Multilabel Reader.

[7] = system: AKT phosphorylation in SNU-1 cells (K-RAS4B^G12D); experiment: HTRF AKT phosphorylation assay in SNU-1 cells; type: cell-based; details: Homo sapiens, SNU1, read-out: SNU-1 pAKT inhibition IC50
Procedure: as §4, §5

[8] = system: ERK phosphorylation in A375 cells (K-RAS4B^wt); experiment: HTRF ERK phosphorylation assay in A375 cells; type: cell-based; details: Homo sapiens, A-375; A375 cells (K-RAS4B^wt, BRAF mutation); two determinations; read-out: A375 pERK inhibition IC50
Procedure: as §4, §5

[9] = system: AKT phosphorylation in A375 cells (K-RAS4B^wt); experiment: HTRF AKT phosphorylation assay in A375 cells; type: cell-based; details: Homo sapiens, A-375; A375 cells (K-RAS4B^wt, BRAF mutation); two determinations; read-out: A375 pAKT inhibition IC50
Procedure: as §4, §5

[10] = system: a series of cancer cell lines; set-up: method as in PMID 25909174; details: read-out: cytotoxic IC50 against a series of cancer cell lines; cited from earlier work

Kd (K-RAS4B^wt) [µM] | SMILES | IC50 (K-RAS4B wild-type [1]) [µM] | IC50 (K-RAS4B^G12D [2]) [µM] | IC50 (K-RAS4B G12V) [µM] | Kd [3] [µM] | Kd (K-RAS4B^G12D [4]) [µM] | solubility (Solubility) [µM] | selectivity factor, mutant versus K-RAS4B^wt (K-RAS4B wild-type [5]) | IC50 [6] [µM] | IC50 [7] [µM] | IC50 [8] [mM] | IC50 [9] [mM] | inhibition of GDP/GTP exchange (in words) (K-RAS4B^G12D [2]; K-RAS4B form mostly not given, inactive = IC50 > 100 μM (Fig. 3 legend)) | IC50 [10] [µM]
40.8 | C=C(C)[C@@H]1CC[C@]2(COC(=O)CCC(=O)O)CC[C@]3(C)[C@H](CC[C@@H]4[C@@]5(C)CC[C@H](OC(=O)CCC(=O)O)C(C)(C)[C@@H]5CC[C@]43C)[C@@H]12 [Compound 32] | 1.01 ± 0.31 | 0.71 ± 0.18 | 1.37 ± 0.28 | > 100 | 29.1 |  |  |  |  |  |  |  | 
39 | COc1cc(C(=O)O)c(C(=O)OC2CCC3(C)C(CCC4(C)C3CC=C3C5CC(C)(C)CCC5(C(=O)O)CCC34C)C2(C)C)cc1OC (stereo not drawn) [Compound 47] | 2.71 ± 1.3 | 1.61 ± 0.85 | 2.9 ± 0.51 | > 50 | > 50 | 302 (≈ 201 µg/mL) |  |  |  |  |  |  | 
 | C=C(C)[C@@H]1CC[C@]2(COC(=O)/C=C\C(=O)O)CC[C@]3(C)[C@H](CC[C@@H]4[C@@]5(C)CC[C@H](O)C(C)(C)[C@@H]5CC[C@]43C)[C@@H]12 [Compound 30] | 69.2 ± 6.8 | 6.8 ± 2.32 | 3.19 ± 0.19 |  |  |  | 15–20 |  |  |  |  |  | 
 | C=C(C)[C@@H]1CC[C@]2(C(=O)O)CC[C@]3(C)[C@H](CC[C@@H]4[C@@]5(C)CC[C@H](OC(=O)c6nccnc6C(=O)O)C(C)(C)[C@@H]5CC[C@]43C)[C@@H]12 [Compound 23] | 23.3 ± 2.9 | 11.8 ± 1 | 9.61 ± 4.82 |  |  | 434 (≈ 263 µg/mL) |  | > 1000 | 61.7 | > 1 | > 1 |  | 
 | C=C(C)[C@@H]1CC[C@]2(C(=O)O)CC[C@]3(C)[C@H](CC[C@@H]4[C@@]5(C)CC[C@H](OC(=O)c6c(F)ccc(F)c6C(=O)O)C(C)(C)[C@@H]5CC[C@]43C)[C@@H]12 [Compound 24] | 15.7 ± 4.3 | 8.63 ± 3.72 | 15.4 ± 2.9 |  |  | 378 (≈ 242 µg/mL) |  | 134 | 13 | > 1 | > 1 |  | 
 | C=C(C)[C@@H]1CC[C@]2(COC(=O)CCC(=O)O)CC[C@]3(C)[C@H](CC[C@@H]4[C@@]5(C)CC[C@H](OC(=O)c6c(F)ccc(F)c6C(=O)O)C(C)(C)[C@@H]5CC[C@]43C)[C@@H]12 [Compound 33] | 2.09 ± 0.59 | 1.45 ± 0.93 | 2.13 ± 0.87 | 37.4 | 26.4 | 416 (≈ 302 µg/mL) |  |  |  |  |  |  | 
 | C=C(C)[C@@H]1CC[C@]2(C(=O)O)CC[C@]3(C)[C@H](CC[C@@H]4[C@@]5(C)CC[C@H](OC(=O)c6cc(OC)c(OC)cc6C(=O)O)C(C)(C)[C@@H]5CC[C@]43C)[C@@H]12 [Compound 26] | > 100 | 36.1 ± 14.7 | 26.4 ± 3.9 |  |  | 158 (≈ 105 µg/mL) |  | > 300 | 83.7 | > 1 | > 1 | only moderate activity | 
 | C=C(C)[C@@H]1CC[C@]2(COC(=O)CCC(=O)O)CC[C@]3(C)[C@H](CC[C@@H]4[C@@]5(C)CC[C@H](OC(=O)c6cc(F)c(F)cc6C(=O)O)C(C)(C)[C@@H]5CC[C@]43C)[C@@H]12 [Compound 34] | 1.18 ± 0.02 | 0.66 ± 0.13 | 2.85 ± 0.14 | > 100 | > 100 | 410 (≈ 298 µg/mL) |  |  |  |  |  |  | 
 | C=C(C)[C@@H]1CC[C@]2(C(=O)O)CC[C@]3(C)[C@H](CC[C@@H]4[C@@]5(C)CC[C@H](OC(=O)c6ccccc6C(=O)O)C(C)(C)[C@@H]5CC[C@]43C)[C@@H]12 [Compound 19] | 15.3 ± 3.8 | 10.4 ± 4.7 | 16.6 ± 5.2 |  |  | 191 (≈ 116 µg/mL) |  | > 300 | 19 | > 1 | > 1 |  | ≤ 10
 | C[C@H]1[C@H](C)CC[C@]2(C(=O)O)CC[C@]3(C)C(=CC[C@@H]4[C@@]5(C)CC[C@H](OC(=O)c6cc(F)c(F)cc6C(=O)O)C(C)(C)[C@@H]5CC[C@]43C)[C@H]12 [Compound 37] | 3.94 ± 1.02 | 2.53 ± 0.63 | 2.15 ± 0.31 | > 50 | 16.6 | 220 (≈ 141 µg/mL) |  |  |  |  |  |  | 
 | C=C(C)[C@@H]1CC[C@]2(C(=O)O)CC[C@]3(C)[C@H](CC[C@@H]4[C@@]5(C)CC[C@H](OC(=O)c6cc(F)c(F)cc6C(=O)O)C(C)(C)[C@@H]5CC[C@]43C)[C@@H]12 [Compound 25] | 39.1 ± 5.4 | 5 ± 0.91 | 9.79 ± 3.41 |  |  | 240 (≈ 154 µg/mL) | 4–6 | > 300 | 18.1 | > 1 | > 1 |  | 

SMILES | Kd (K-RAS4B^wt) [µM] | IC50 (K-RAS4B wild-type [1]) [µM] | IC50 (K-RAS4B^G12D [2]) [µM] | IC50 (K-RAS4B G12V) [µM] | Kd [3] [µM] | Kd (K-RAS4B^G12D [4]) [µM] | solubility (Solubility) [µM] | selectivity factor, mutant versus K-RAS4B^wt (K-RAS4B wild-type [5]) | IC50 [6] [µM] | IC50 [7] [µM] | IC50 [8] [mM] | IC50 [9] [mM] | inhibition of GDP/GTP exchange (in words) (K-RAS4B^G12D [2]; K-RAS4B form mostly not given, inactive = IC50 > 100 μM (Fig. 3 legend)) | IC50 [10] [µM]
C=C(C)[C@@H]1CC[C@]2(C(=O)O)CC[C@]3(C)[C@H](CC[C@@H]4[C@@]5(C)CC[C@H](OC(=O)c6sccc6C(=O)O)C(C)(C)[C@@H]5CC[C@]43C)[C@@H]12 [Compound 18] | 21.8 | 1.27 ± 0.69 | 1.83 ± 1.45 |  | > 50 | 20.1 | 255 (≈ 156 µg/mL) |  |  |  |  |  |  | 
